For this assay, the system named is C28/I2 cells. In words: Protein and mRNA expression in C28/I2 chondrocyte cells. The assay is classed as cell-based, human. From the text:
Cell culture and reagents. The mouse chondrogenic cell line, ATDC5, was obtained from the RIKEN Cell Batik. The human juvenile costal chondrocyte cell line, C28/I2, was provided by Dr. W. U. Kim (Catholic University, Korea). HEK293-TOP cells (HEK293 cells containing the chromosomally incorporated TOPFlash gene) were provided by Dr. S. Oh (Kuk Min University, Korea). ATDCS cells were maintained in DMEM/F12 (1:1) (Gibco, Grand Island, N.Y.) supplemented with 5% FBS (Gibco). To induce hypertrophic differentiation, ATDC5 cells were incubated with insulin-transferrin-sodium selenite (ITS) supplement (Gibco) in three-dimensional alginate beads for 3 days, as previously described. See e.g., Kawasaki Y. et al. (2008), Phosphorylation of GSK-3beta by cGMP-dependent protein kinase II promotes hypertrophic differentiation of murine chondrocytes. J CLIN INVEST 118: 2506-2515. C28/I2 and HEK293-TOP cells were maintained in DMEM (Gibco) containing 10% FBS. All chemicals were dissolved in dimethyl sulfoxide (DMSO; Sigma-Aldrich, St Louis, Mo.) for the in vitro studies. For E2 (17β-estradiol; Sigma-Aldrich) treatment, cells were cultured in phenol red-free DMEM/F12 with 5% charcoal-stripped FBS for 24 hours followed by serum-free medium for 24 hours before the experiment. The PTD-DBMP was synthesized by Peptide 2.0 Inc (Chantilly, Va.).
Immunocytochemistry. ATDCS or C28/I2 cells were seeded on glass coverslip in 12-well culture plates. The cells were washed with PBS and fixed with 4% PFA at room temperature for 15 minutes. After permeabilization with 0.1% triton-X-100 for 15 minutes and blocking with 5% BSA for 1 hour, the cells were incubated with primary antibodies specific for β-catenin (1:100) or CXXC5 l (1:200) at 4° C. overnight. […]
Immunoblot analyses. […] Immunoblot bands were analyzed using Multi-Gauge V3.0 software (Fujifilm). Points of interest (POIs) from immunoblot bands were marked and quantified using densitometry, and the background signals were subtracted from respective immunoblot signals. […]
Reverse transcription and quantitative real-time PCR. […]

Results on 2 compounds are retold here after US20210323918A1, “COMPOSITIONS AND METHODS FOR SUPPRESSING AND/OR TREATING A GROWTH RELATED DISEASE AND/OR A CLINICAL CONDITION THEREOF” (CK Biotech Inc., priority 2018, published 2021).

In the case of 17β-estradiol [Compound E2], the “expression of CXXC5” value (100 nM, 0-72 hours, FIG. 2A) was “induced expression of CXXC5 in a time-dependent manner”. The β-catenin level result (100 nM, following 24 hours) is on record as “reduced”.

For `CO/N=C1/C(=C2/C(=O)Nc3cc(Cl)c(Cl)cc32)Nc2ccccc21` [KY19382, 5,6-dichloroindirubin-3′-methoxime], the “mRNA levels of chondrogenic markers” value (1 μM, 3 days, alginate beads, FIG. 11C) was “upregulated”.
